Measurements published in US4007167A, “Antibiotic BM123 and production thereof” (American Cyanamid Company, priority 1975, dated 1977).
≈ marks a conversion by molar mass, not a printed value.

Assays:
[1] = system: Mycobacterium smegmatis ATCC 607; test: in vitro MIC, standard agar dilution procedure; format: cell-based; details: for MIC: Mycolicibacterium smegmatis, ATCC607, read-out: Minimal Inhibitory Concentration
[2] = system: Salmonella gallinarum 605; test: in vitro MIC, standard agar dilution procedure; format: cell-based; details: for MIC: Salmonella enterica, read-out: Minimal Inhibitory Concentration
[3] = system: Staphylococcus aureus Smith ATCC 13709; test: in vitro MIC, standard agar dilution procedure; format: cell-based; details: for MIC: ATCC13709, read-out: Minimal Inhibitory Concentration
[4] = system: Bacillus subtilis No. 18 Stansly R-76; test: in vitro MIC, standard agar dilution procedure; format: cell-based; details: for MIC: read-out: Minimal Inhibitory Concentration
[5] = system: Salmonella typhosa ATCC 6539; test: in vitro MIC, standard agar dilution procedure; format: cell-based; details: for MIC: Salmonella enterica, read-out: Minimal Inhibitory Concentration; for Minimal Inhibitory Concentration: Salmonella typhosa ATCC 6539, agar dilution
Shigella shiga = test: microbe, parasite or virus in culture; format: cell-based; details: for MIC: Shigella, read-out: Minimal Inhibitory Concentration; for Minimal Inhibitory Concentration: Shigella shiga, agar dilution
[6] = system: Proteus mirabilis ATCC 4671; test: in vitro MIC, standard agar dilution procedure; format: cell-based; details: for MIC: ATCC4671, read-out: Minimal Inhibitory Concentration
Escherichia coli No. 29 = test: in vitro MIC, standard agar dilution procedure; format: cell-based; details: for MIC: read-out: Minimal Inhibitory Concentration
[7] = system: Streptococcus faecalis GK; test: in vitro MIC, standard agar dilution procedure; format: cell-based; details: for MIC: Enterococcus faecalis, read-out: Minimal Inhibitory Concentration
Escherichia coli U-311 = test: in vitro MIC, standard agar dilution procedure; format: cell-based; details: for MIC: U311, read-out: Minimal Inhibitory Concentration
[8] = system: Enterobacter aerogenes 75; test: in vitro MIC, standard agar dilution procedure; format: cell-based; details: for MIC: Klebsiella aerogenes, read-out: Minimal Inhibitory Concentration
[9] = system: Proteus vulgaris ATCC 9484; test: in vitro MIC, standard agar dilution procedure; format: cell-based; details: for MIC: ATCC9484, read-out: Minimal Inhibitory Concentration
[10] = system: Pseudomonas aeruginosa ATCC 10145; test: in vitro MIC, standard agar dilution procedure; format: cell-based; details: for MIC: ATCC10145, read-out: Minimal Inhibitory Concentration
[11] = system: Corynebacterium xerosis NRRL B-1397; test: in vitro MIC, standard agar dilution procedure; format: cell-based; details: for MIC: NRRLB1397, read-out: Minimal Inhibitory Concentration
[12] = system: Bacillus cereus ATCC 9634; test: in vitro MIC, standard agar dilution procedure; format: cell-based; details: for MIC: ATCC9634, read-out: Minimal Inhibitory Concentration
[13] = system: Proteus morganii ATCC 8019; test: in vitro MIC, standard agar dilution procedure; format: cell-based; details: for MIC: Morganella morganii, ATCC8019, read-out: Minimal Inhibitory Concentration
[14] = system: Pseudomonas aeruginosa 1A7; test: in vitro MIC, standard agar dilution procedure; format: cell-based; details: for MIC: read-out: Minimal Inhibitory Concentration
[15] = system: Staphylococcus aureus 4050B122-3; test: in vitro MIC, standard agar dilution procedure; format: cell-based; details: for MIC: 4050B1223, read-out: Minimal Inhibitory Concentration
Klebsiella pneumoniae AD [16] = test: in vitro MIC, standard agar dilution procedure; format: cell-based; details: for MIC: read-out: Minimal Inhibitory Concentration
Sarcina lutea ATCC 9341 = test: in vitro MIC, standard agar dilution procedure; format: cell-based; details: for MIC: Micrococcus luteus, ATCC9341, read-out: Minimal Inhibitory Concentration
[17] = system: Bacillus subtilis No. 17 Stansly R-78; test: in vitro MIC, standard agar dilution procedure; format: cell-based; details: for MIC: read-out: Minimal Inhibitory Concentration
[18] = system: Staphylococcus aureus Rose ATCC 14154; test: in vitro MIC, standard agar dilution procedure; format: cell-based; details: for MIC: ATCC14154, read-out: Minimal Inhibitory Concentration
Escherichia coli US311 = test: control of systemic lethal infection in mice, single subcutaneous dose; format: in vivo, mice (Carworth Farms CF-1)
Description: (§1) These new substances show high in vivo antibacterial activity in mice against Proteus mirabilis ATCC 4671, Klebsiella pneumoniae AD, and Escherichia coli US311 when administered by a single subcutaneous dose to groups of Carworth Farms CF-1 mice, weight about 20 gm., infected intraperitoneally with a lethal dose of these bacteria in 10^-^1.6 , 10^-^4 and 10^-^3 trypticase soy broth TSP dilutions, respectively, of a 5 hour TSP blood culture.
(§2) Table VII, below, illustrates the in vivo antibacterial activity of BM123α, BM123β, and BM123γ against these three bacteria.

Klebsiella pneumoniae AD [19] = test: as above; format: in vivo, mice (Carworth Farms CF-1)
Description: as §1, §2

[20] = system: Proteus mirabilis ATCC 4671; test: as above; format: in vivo, mice (Carworth Farms CF-1)
Description: as §1, §2

Bacillus globigii = test: in vitro MIC, standard agar dilution procedure; format: cell-based
a variety of organisms = test: in vivo antibacterial activity (general statement); details: in words
[21] = single subcutaneous dose 32 mg./kg.
[22] = single subcutaneous dose 128 mg./kg.
[23] = single subcutaneous dose 512 mg./kg.

Compound: CC1OC(Oc2ccc(/C=C/C(=O)NCCCNCCCCN)cc2)C(NC(=N)N)C(O)C1NC(=O)NC1OCC(OC2OCC(O)C3NC(=O)N(C(N)=O)C23)C(O)C1NC(N)=O (single isomer, unassigned) [BM123γ1]
- MIC [1]: 0.1 µg/mL (≈ 0.112 µM)
- MIC [2]: 0.1 µg/mL (≈ 0.112 µM)
- MIC [3]: 0.1 µg/mL (≈ 0.112 µM)
- MIC [4]: 0.25 µg/mL (≈ 0.28 µM)
- MIC [5]: 0.05 µg/mL (≈ 0.0559 µM)
- MIC (Shigella shiga): 0.25 µg/mL (≈ 0.28 µM)
- MIC [6]: 0.25 µg/mL (≈ 0.28 µM)
- MIC (Escherichia coli No. 29): 0.05 µg/mL (≈ 0.0559 µM)
- MIC [7]: 2.5 µg/mL (≈ 2.8 µM)
- MIC (Escherichia coli U-311): 0.1 µg/mL (≈ 0.112 µM)
- MIC [8]: 0.1 µg/mL (≈ 0.112 µM)
- MIC [9]: 0.1 µg/mL (≈ 0.112 µM)
- MIC [10]: 2.5 µg/mL (≈ 2.8 µM)
- MIC [11]: 0.25 µg/mL (≈ 0.28 µM)
- MIC [12]: 0.25 µg/mL (≈ 0.28 µM)
- MIC [13]: 0.1 µg/mL (≈ 0.112 µM)
- MIC [14]: 5 µg/mL (≈ 5.59 µM)
- MIC [15]: 0.25 µg/mL (≈ 0.28 µM)
- MIC (Klebsiella pneumoniae AD [16]): 0.05 µg/mL (≈ 0.0559 µM)
- MIC (Sarcina lutea ATCC 9341): 0.5 µg/mL (≈ 0.559 µM)
- MIC [17]: 0.1 µg/mL (≈ 0.112 µM)
- MIC [18]: 0.25 µg/mL (≈ 0.28 µM)

Compound: CC1OC(Oc2ccc(/C=C/C(=O)NCCCNCCCCN)cc2)C(NC(=N)N)C(O)C1NC(=O)NC1OCC(OC2OCC3OC(=O)NC3C2NC(N)=O)C(O)C1NC(N)=O (single isomer, unassigned) [BM123γ2]
- MIC [1]: 0.25 µg/mL (≈ 0.28 µM)
- MIC [2]: 0.1 µg/mL (≈ 0.112 µM)
- MIC [3]: 0.25 µg/mL (≈ 0.28 µM)
- MIC [4]: 0.25 µg/mL (≈ 0.28 µM)
- MIC [5]: 0.05 µg/mL (≈ 0.0559 µM)
- MIC (Shigella shiga): 0.25 µg/mL (≈ 0.28 µM)
- MIC [6]: 0.25 µg/mL (≈ 0.28 µM)
- MIC (Escherichia coli No. 29): 0.1 µg/mL (≈ 0.112 µM)
- MIC [7]: 2.5 µg/mL (≈ 2.8 µM)
- MIC (Escherichia coli U-311): 0.1 µg/mL (≈ 0.112 µM)
- MIC [8]: 0.1 µg/mL (≈ 0.112 µM)
- MIC [9]: 0.1 µg/mL (≈ 0.112 µM)
- MIC [10]: 5 µg/mL (≈ 5.59 µM)
- MIC [11]: 0.25 µg/mL (≈ 0.28 µM)
- MIC [12]: 0.5 µg/mL (≈ 0.559 µM)
- MIC [13]: 0.1 µg/mL (≈ 0.112 µM)
- MIC [14]: 10 µg/mL (≈ 11.2 µM)
- MIC [15]: 0.5 µg/mL (≈ 0.559 µM)
- MIC (Klebsiella pneumoniae AD [16]): 0.05 µg/mL (≈ 0.0559 µM)
- MIC (Sarcina lutea ATCC 9341): 1 µg/mL (≈ 1.12 µM)
- MIC [17]: 0.1 µg/mL (≈ 0.112 µM)
- MIC [18]: 0.25 µg/mL (≈ 0.28 µM)

Compound: N=C(N)NCCCC(N)C(=O)NC1C(OC2C(CO)OC(OC3C(O)C(NC(=O)C4CCC(=N)N4)C(O)C(O)C3OC(N)=O)C(O)C2O)OC(CO)C(O)C1O (stereo not drawn) [BM123α]
- Minimal Inhibitory Concentration [1]: 5 µg/mL
- Minimal Inhibitory Concentration [2]: 5 µg/mL
- Minimal Inhibitory Concentration [3]: 20 µg/mL
- Minimal Inhibitory Concentration [4]: 20 µg/mL
- Minimal Inhibitory Concentration [5]: 5 µg/mL
- Minimal Inhibitory Concentration (Shigella shiga): 50 µg/mL
- Minimal Inhibitory Concentration [6]: 50 µg/mL
- Minimal Inhibitory Concentration (Escherichia coli No. 29): 5 µg/mL
- Minimal Inhibitory Concentration [7]: > 200 µg/mL
- Minimal Inhibitory Concentration (Escherichia coli U-311): 5 µg/mL
- Alive/Total Mice Tested, 7 Days After Infection (Escherichia coli US311; [21]): 1/5
- Alive/Total Mice Tested, 7 Days After Infection (Escherichia coli US311; [22]): 5/5
- Alive/Total Mice Tested, 7 Days After Infection (Escherichia coli US311; [23]): 5/5
- Alive/Total Mice Tested, 7 Days After Infection (Klebsiella pneumoniae AD [19]; [21]): 0/5
- Alive/Total Mice Tested, 7 Days After Infection (Klebsiella pneumoniae AD [19]; [22]): 0/5
- Alive/Total Mice Tested, 7 Days After Infection (Klebsiella pneumoniae AD [19]; [23]): 4/5
- Alive/Total Mice Tested, 7 Days After Infection ([20]; single subcutaneous dose 8 mg./kg.): 0/5
- Alive/Total Mice Tested, 7 Days After Infection [20, 21]: 2/5
- Alive/Total Mice Tested, 7 Days After Infection [20, 22]: 3/5
- Alive/Total Mice Tested, 7 Days After Infection [20, 23]: 5/5
- Minimal Inhibitory Concentration (Bacillus globigii): 10 µg/mL
- Minimal Inhibitory Concentration [8]: 10 µg/mL
- Minimal Inhibitory Concentration [9]: 5 µg/mL
- Minimal Inhibitory Concentration [10]: 200 µg/mL
- Minimal Inhibitory Concentration [11]: 10 µg/mL
- Minimal Inhibitory Concentration [12]: 100 µg/mL
- Minimal Inhibitory Concentration [13]: 5 µg/mL
- Minimal Inhibitory Concentration [14]: > 200 µg/mL
- Minimal Inhibitory Concentration [15]: 100 µg/mL
- Minimal Inhibitory Concentration (Klebsiella pneumoniae AD [16]): 5 µg/mL
- in vivo activity against a variety of organisms (a variety of organisms): active in vivo
- Minimal Inhibitory Concentration (Sarcina lutea ATCC 9341): 50 µg/mL
- Minimal Inhibitory Concentration [17]: 10 µg/mL
- Minimal Inhibitory Concentration [18]: 100 µg/mL

Compound: CC1OC(Oc2ccc(/C=C/C(=O)NCCCNCCCCN)cc2)C(NC(=N)N)C(O)C1NC(=O)NC1OCC(OC2OCC(O)C(N)C2NC(N)=O)C(O)C1NC(N)=O (stereo not drawn) [BM123β1]
- Minimal Inhibitory Concentration [1]: 2.5 µg/mL
- Minimal Inhibitory Concentration [2]: 0.5 µg/mL
- Minimal Inhibitory Concentration [3]: 0.5 µg/mL
- Minimal Inhibitory Concentration [4]: 2.5 µg/mL
- Minimal Inhibitory Concentration [5]: 0.25 µg/mL
- Minimal Inhibitory Concentration (Shigella shiga): 2.5 µg/mL
- Minimal Inhibitory Concentration [6]: 0.5 µg/mL
- Minimal Inhibitory Concentration (Escherichia coli No. 29): 0.25 µg/mL
- Minimal Inhibitory Concentration [7]: > 100 µg/mL
- Minimal Inhibitory Concentration (Escherichia coli U-311): 0.25 µg/mL
- Minimal Inhibitory Concentration (Bacillus globigii): 0.25 µg/mL
- Minimal Inhibitory Concentration [8]: 0.5 µg/mL
- Minimal Inhibitory Concentration [9]: 0.25 µg/mL
- Minimal Inhibitory Concentration [10]: 25 µg/mL
- Minimal Inhibitory Concentration [11]: 2.5 µg/mL
- Minimal Inhibitory Concentration [12]: 2.5 µg/mL
- Minimal Inhibitory Concentration [13]: 0.5 µg/mL
- Minimal Inhibitory Concentration [14]: 100 µg/mL
- Minimal Inhibitory Concentration [15]: 2.5 µg/mL
- Minimal Inhibitory Concentration (Klebsiella pneumoniae AD [16]): 0.25 µg/mL
- Minimal Inhibitory Concentration (Sarcina lutea ATCC 9341): 2.5 µg/mL
- Minimal Inhibitory Concentration [17]: 0.25 µg/mL
- Minimal Inhibitory Concentration [18]: 1 µg/mL

Compound: Gentamicin sulfate [reference compound]
- Minimal Inhibitory Concentration [1]: 0.1 µg/mL
- Minimal Inhibitory Concentration [2]: 0.05 µg/mL
- Minimal Inhibitory Concentration [3]: 0.05 µg/mL
- Minimal Inhibitory Concentration [4]: 0.1 µg/mL
- Minimal Inhibitory Concentration [5]: 0.1 µg/mL
- Minimal Inhibitory Concentration (Shigella shiga): 0.25 µg/mL
- Minimal Inhibitory Concentration [6]: 0.25 µg/mL
- Minimal Inhibitory Concentration (Escherichia coli No. 29): 0.05 µg/mL
- Minimal Inhibitory Concentration [7]: 2.5 µg/mL
- Minimal Inhibitory Concentration (Escherichia coli U-311): 0.05 µg/mL
- Minimal Inhibitory Concentration (Bacillus globigii): 0.025 µg/mL
- Minimal Inhibitory Concentration [8]: 0.1 µg/mL
- Minimal Inhibitory Concentration [9]: 0.1 µg/mL
- Minimal Inhibitory Concentration [10]: 2.5 µg/mL
- Minimal Inhibitory Concentration [11]: 0.025 µg/mL
- Minimal Inhibitory Concentration [12]: 0.25 µg/mL
- Minimal Inhibitory Concentration [13]: 0.1 µg/mL
- Minimal Inhibitory Concentration [14]: 5 µg/mL
- Minimal Inhibitory Concentration [15]: 0.25 µg/mL
- Minimal Inhibitory Concentration (Klebsiella pneumoniae AD [16]): 0.05 µg/mL
- Minimal Inhibitory Concentration (Sarcina lutea ATCC 9341): 0.25 µg/mL
- Minimal Inhibitory Concentration [17]: 0.025 µg/mL
- Minimal Inhibitory Concentration [18]: 0.1 µg/mL
